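All cell lines were grown in 96-well plates and treated with compound for 48 hours. GI50 marks 50% less growth.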 Activity calls are given as the source filed them. Rule as the data show it: active = GI50 up to about 1.1 µM and inactive = higher.
Legend:
Assay in all cases: NCI anticancer screen, dose series, 48 h
DLD-1 = system: DLD-1
NCI-H460 = system: NCI-H460
IGROV-1 = system: IGROV-1
OVCAR-4 = system: OVCAR-4
LOX IMVI = system: LOX IMVI
OVCAR-5 = system: OVCAR-5
OVCAR-8 = system: OVCAR-8
SF-295 = system: SF-295
SN12C = system: SN12C
HOP-18 = system: HOP-18
KM12 = system: KM12
LXFL 529 = system: LXFL 529
NCI-H226 = system: NCI-H226
SK-MEL-2 = system: SK-MEL-2
DMS-273 = system: DMS-273
RXF 631 = system: RXF 631
UO-31 = system: UO-31
SNB-75 = system: SNB-75
CAKI-1 = system: CAKI-1
SF-268 = system: SF-268
SW-620 = system: SW-620
SK-OV-3 = system: SK-OV-3
HOP-92 = system: HOP-92
HL-60 = system: HL-60
U-251 = system: U-251
HCT-116 = system: HCT-116
SK-MEL-5 = system: SK-MEL-5
COLO 205 = system: COLO 205
A549 = system: A549
Malme-3M = system: Malme-3M
OVCAR-3 = system: OVCAR-3
UACC-62 = system: UACC-62
EKVX = system: EKVX
M19-MEL = system: M19-MEL
HCC 2998 = system: HCC 2998
A498 = system: A498
XF498 = system: XF498
NCI-H23 = system: NCI-H23
TK-10 = system: TK-10
CCRF-CEM = system: CCRF-CEM
786-0 = system: 786-0
NCI-H522 = system: NCI-H522
HCT-15 = system: HCT-15
RPMI-8226 = system: RPMI-8226
SNB-19 = system: SNB-19
UACC-257 = system: UACC-257
HOP-62 = system: HOP-62
SK-MEL-28 = system: SK-MEL-28
SR = system: SR
M14 = system: M14
HT-29 = system: HT-29
MOLT-4 = system: MOLT-4
SNB-78 = system: SNB-78
DMS-114 = system: DMS-114
SF-539 = system: SF-539
RXF 393 = system: RXF 393
ACHN = system: ACHN
K562 = system: K562
KM-20L2 = system: KM-20L2

NNC(=O)/C(NC(=O)c1ccccc1)=C(\N)c1cccc([N+](=O)[O-])c1
GI50 (DLD-1): > 100 µM (inactive)
GI50 (NCI-H460): > 100 µM (inactive)
GI50 (IGROV-1): > 100 µM (inactive)
GI50 (OVCAR-4): > 100 µM (inactive)
GI50 (LOX IMVI): > 100 µM (inactive)
GI50 (OVCAR-5): > 100 µM (inactive)
GI50 (OVCAR-8): > 100 µM (inactive)
GI50 (SF-295): > 100 µM (inactive)
GI50 (SN12C): > 100 µM (inactive)
GI50 (HOP-18): > 100 µM (inactive)
GI50 (KM12): > 100 µM (inactive)
GI50 (LXFL 529): > 100 µM (inactive)
GI50 (NCI-H226): > 100 µM (inactive)
GI50 (SK-MEL-2): > 100 µM (inactive)
GI50 (DMS-273): > 100 µM (inactive)
GI50 (RXF 631): > 100 µM (inactive)
GI50 (UO-31): > 100 µM (inactive)
GI50 (SNB-75): > 100 µM (inactive)
GI50 (CAKI-1): > 100 µM (inactive)
GI50 (SF-268): > 100 µM (inactive)
GI50 (SW-620): > 100 µM (inactive)
GI50 (SK-OV-3): > 100 µM (inactive)
GI50 (HOP-92): > 100 µM (inactive)
GI50 (HL-60): > 100 µM (inactive)
GI50 (U-251): > 100 µM (inactive)
GI50 (HCT-116): > 100 µM (inactive)
GI50 (SK-MEL-5): > 100 µM (inactive)
GI50 (COLO 205): > 100 µM (inactive)
GI50 (A549): > 100 µM (inactive)
GI50 (Malme-3M): > 100 µM (inactive)
GI50 (OVCAR-3): > 100 µM (inactive)
GI50 (UACC-62): > 100 µM (inactive)
GI50 (EKVX): > 100 µM (inactive)
GI50 (M19-MEL): > 100 µM (inactive)
GI50 (HCC 2998): > 100 µM (inactive)
GI50 (A498): > 100 µM (inactive)
GI50 (XF498): > 100 µM (inactive)
GI50 (NCI-H23): > 100 µM (inactive)
GI50 (TK-10): > 100 µM (inactive)
GI50 (CCRF-CEM): > 100 µM (inactive)
GI50 (786-0): > 100 µM (inactive)
GI50 (NCI-H522): > 100 µM (inactive)
GI50 (HCT-15): > 100 µM
GI50 (RPMI-8226): > 100 µM (inactive)
GI50 (SNB-19): > 100 µM (inactive)
GI50 (UACC-257): > 100 µM (inactive)
GI50 (HOP-62): > 100 µM (inactive)
GI50 (SK-MEL-28): > 100 µM (inactive)
GI50 (SR): > 100 µM (inactive)
GI50 (M14): > 100 µM (inactive)
GI50 (HT-29): > 100 µM (inactive)
GI50 (MOLT-4): 94.2 µM (inactive)
GI50 (SNB-78): > 100 µM (inactive)
GI50 (DMS-114): > 100 µM (inactive)
GI50 (SF-539): > 100 µM (inactive)
GI50 (RXF 393): > 100 µM (inactive)
GI50 (ACHN): > 100 µM (inactive)
GI50 (K562): > 100 µM (inactive)

Cc1c(C(=O)/C=C/c2ccco2)[n+]([O-])c2ccccc2[n+]1[O-]
GI50 (DLD-1): > 100 µM (inactive)
GI50 (NCI-H460): > 100 µM (inactive)
GI50 (IGROV-1): > 100 µM (inactive)
GI50 (LOX IMVI): > 100 µM (inactive)
GI50 (OVCAR-5): > 100 µM (inactive)
GI50 (OVCAR-8): > 100 µM (inactive)
GI50 (SF-295): > 100 µM (inactive)
GI50 (SN12C): > 100 µM (inactive)
GI50 (HOP-18): > 100 µM (inactive)
GI50 (KM12): > 100 µM (inactive)
GI50 (LXFL 529): > 100 µM (inactive)
GI50 (NCI-H226): > 100 µM (inactive)
GI50 (DMS-273): > 100 µM (inactive)
GI50 (RXF 631): 18.6 µM (inactive)
GI50 (KM-20L2): > 100 µM (inactive)
GI50 (UO-31): > 100 µM (inactive)
GI50 (SNB-75): > 100 µM (inactive)
GI50 (CAKI-1): > 100 µM (inactive)
GI50 (SF-268): > 100 µM (inactive)
GI50 (SW-620): > 100 µM (inactive)
GI50 (SK-OV-3): > 100 µM (inactive)
GI50 (HOP-92): 45.4 µM (inactive)
GI50 (HL-60): 42 µM (inactive)
GI50 (HCT-116): > 100 µM (inactive)
GI50 (COLO 205): > 100 µM (inactive)
GI50 (A549): > 100 µM (inactive)
GI50 (Malme-3M): > 100 µM (inactive)
GI50 (OVCAR-3): > 100 µM (inactive)
GI50 (UACC-62): > 100 µM (inactive)
GI50 (EKVX): > 100 µM (inactive)
GI50 (M19-MEL): > 100 µM (inactive)
GI50 (HCC 2998): > 100 µM (inactive)
GI50 (A498): > 100 µM (inactive)
GI50 (XF498): > 100 µM (inactive)
GI50 (NCI-H23): > 100 µM (inactive)
GI50 (TK-10): > 100 µM (inactive)
GI50 (CCRF-CEM): 36.1 µM (inactive)
GI50 (786-0): > 100 µM (inactive)
GI50 (NCI-H522): 58.9 µM (inactive)
GI50 (RPMI-8226): 41.8 µM (inactive)
GI50 (SNB-19): > 100 µM (inactive)
GI50 (UACC-257): > 100 µM (inactive)
GI50 (SK-MEL-28): > 100 µM (inactive)
GI50 (SR): 55.2 µM (inactive)
GI50 (M14): > 100 µM (inactive)
GI50 (HT-29): > 100 µM (inactive)
GI50 (MOLT-4): 39.6 µM (inactive)
GI50 (SNB-78): > 100 µM (inactive)
GI50 (DMS-114): 73.5 µM (inactive)
GI50 (SF-539): > 100 µM (inactive)
GI50 (RXF 393): > 100 µM (inactive)
GI50 (ACHN): > 100 µM (inactive)
GI50 (K562): 56.4 µM (inactive)
